The results in this text go back to patent US7897602B2, “Indolinone compounds as kinase inhibitors” (Development Center for Biotechnology, priority 2009, dated 2011).

The target of one assay is T1, Aurora A kinase (Homo sapiens, UniProt O14965).
T1 construct: purchased Upstate
T1 sequence (O14965 1-403): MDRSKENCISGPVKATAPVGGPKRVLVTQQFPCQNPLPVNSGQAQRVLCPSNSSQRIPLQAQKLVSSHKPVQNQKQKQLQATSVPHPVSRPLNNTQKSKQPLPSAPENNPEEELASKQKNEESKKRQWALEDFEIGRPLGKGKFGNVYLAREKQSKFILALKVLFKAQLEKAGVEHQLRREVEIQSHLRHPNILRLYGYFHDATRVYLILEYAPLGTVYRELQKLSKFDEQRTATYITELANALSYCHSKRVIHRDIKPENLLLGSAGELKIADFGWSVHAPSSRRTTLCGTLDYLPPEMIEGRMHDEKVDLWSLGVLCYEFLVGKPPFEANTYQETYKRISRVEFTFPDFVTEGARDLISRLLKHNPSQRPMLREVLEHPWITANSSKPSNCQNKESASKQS
Put plainly: Aurora A kinase assay ([γ-33P]ATP, CHOCKtide substrate). The note with it: for inhibition at 1 µM: 1.0 μM test compound. It is filed as biochemical. An outline of the steps: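 Recombinant Aurora A (1 ng) or Aurora B (2.5 ng) incubated with test compound, CHOCKtide (1 μg) and [γ-33P]ATP/ATP at 10 μM (Aurora A) or 40 μM (Aurora B), 30 min at 33 °C. Stopped with phosphoric acid; filter-bound 33P counted; IC50 = half-maximal inhibition.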

In a further assay the target is T2, VEGFR2 kinase (Homo sapiens, UniProt P35968).
T2 construct: recombinant N-terminal 6×His-tagged VEGFR2 kinase domain construct expressed by baculovirus; 6xHis (N); made in house
T2 sequence (P35968 834-1162 limits assumed): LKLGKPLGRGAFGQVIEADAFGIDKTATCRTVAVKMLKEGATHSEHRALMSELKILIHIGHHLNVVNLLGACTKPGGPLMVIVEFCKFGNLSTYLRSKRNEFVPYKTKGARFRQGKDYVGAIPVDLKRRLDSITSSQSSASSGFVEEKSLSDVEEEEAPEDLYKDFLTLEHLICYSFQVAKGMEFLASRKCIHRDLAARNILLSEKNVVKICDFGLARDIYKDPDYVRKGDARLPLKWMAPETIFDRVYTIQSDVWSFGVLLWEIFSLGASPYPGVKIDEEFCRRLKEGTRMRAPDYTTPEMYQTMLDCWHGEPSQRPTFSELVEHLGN
Put plainly: VEGFR2 kinase assay (33P incorporation into Poly(Glu-Tyr)). Format: biochemical. Particulars: 500 nM test compound; read-out: Inhibition at 500 nM (%) VEGFr-2. The protocol: Inhibition of VEGFR2 kinase activity by compounds disclosed herein was quantified by measuring the amount of [^33P] incorporated into the substrate in the presence of a test compound. Specifically, a reaction mixture with a final volume of 25 μL and containing 6.25 ng of VEGFR2 kinase (obtained by purifying recombinant N-terminal 6×His-tagged VEGFR2 kinase domain construct expressed by baculovirus), 5 μg of substrate (Poly (Glu-Tyr, 4:1, Sigma)), kinase reaction buffer (20 mM MOPS pH 7.0, 1 mM EDTA, 5% glycerol, 0.01% Brij-35, 0.1% β-mercaptoethanol, 1 mg/mL BSA, 100 μM ATP, 0.1 μCi per well [^33P]-γ-ATP (2,500-3,000 Ci/mmol), and 500 nM test compound (final concentration of DMSO was 4%) or 4% DMSO alone (as the control sample), was incubated at 30° C. for 30 minutes. The reaction was then stopped by adding 5 μL of 3% phosphoric acid solution. The resultant solution was transferred to and harvested by a filter plate (UniFilter-96 GF/B, PerkinElmer). The filter plate was then washed 20 times with d.d. H2O for 5 min followed by the addition of 30 μL of MicroScint™-20 Cocktail (PerkinElmer). After the plate was sealed, the retained radioactivity on the filter was counted using a TopCount scintillation detector (PerkinElmer). The percentage of inhibition rate of the test compound was calculated by dividing the retained radioactivity of the test sample with the retained radioactivity of the control sample and shown in Table 3.

The IC50 is the point on the concentration scale where inhibition reaches its midpoint. What is called inhibition is the share of the control response that was lost under treatment. Regarding `O=C(O)CCc1c(/C=C2\C(=O)Nc3cc(-c4ccc(O)cc4)ccc32)[nH]c2c1C(=O)CCC2` [DCB-70075, (Z)-6-(4-hydroxyphenyl)-3-((3-carboxyethyl-4-oxo-4,5,6,7-tetrahydro-1H-indol-2-yl)methylene)indolin-2-one], on Aurora A kinase, half-maximal inhibition (IC50) was put at 86.3 nM and at 1 µM the inhibition was 92.4%. For the same molecule, the inhibition at 0.5 µM on VEGFR2 kinase worked out at 99.6%.

Consider `O=C(O)CCc1c(/C=C2\C(=O)Nc3ccc(NC(=O)c4ccc(F)cc4)cc32)[nH]c2c1C(=O)CCC2` [DCB-70076, (Z)-5-(4-fluorobenzamido)-3-((3-carboxyethyl-4-oxo-4,5,6,7-tetrahydro-1H-indol-2-yl)methylene)indolin-2-one], for which the inhibition at 1 µM against Aurora A kinase is 40.7%. For the same molecule, at VEGFR2 kinase, the inhibition at 0.5 µM came to 59.8%.

With `CCOC(=O)CCc1c(/C=C2\C(=O)Nc3cc(-c4ccc(O)c(O)c4)ccc32)[nH]c2c1C(=O)CCC2` [DCB-70077, (Z)-6-(3,4-dihydroxyphenyl)-3-((3-(3-ethoxy-3-oxopropyl)-4-oxo-4,5,6,7-tetrahydro-1H-indol-2-yl)methylene)indolin-2-one], the inhibition at 1 µM against Aurora A kinase amounted to 57%. Also, at VEGFR2 kinase, the inhibition at 0.5 µM was determined as 89.7%.

On Aurora A kinase, `O=C(O)CCc1c(/C=C2\C(=O)Nc3cc(-c4ccc(O)c(O)c4)ccc32)[nH]c2c1C(=O)CCC2` [DCB-70078, (Z)-6-(3,4-dihydroxyphenyl)-3-((3-carboxyethyl-4-oxo-4,5,6,7-tetrahydro-1H-indol-2-yl)methylene)indolin-2-one] registered a half-maximal inhibitory concentration (IC50) of 46.1 nM and an inhibition at 1 µM of 91.6%. The inhibition at 0.5 µM on VEGFR2 kinase stood at 98.9%.

`CCOC(=O)CCc1c(/C=C2\C(=O)Nc3cc(-c4cc5ccccc5s4)ccc32)[nH]c2c1C(=O)CCC2` [DCB-70079, (Z)-6-(benzo[b]thiophen-2-yl)-3-((3-(3-ethoxy-3-oxopropyl)-4-oxo-4,5,6,7-tetrahydro-1H-indol-2-yl)methylene)indolin-2-one] displayed an inhibition at 1 µM on Aurora A kinase of 8.8%. In addition, the inhibition at 0.5 µM at VEGFR2 kinase was determined as 15.6%.

With `O=C(O)CCc1c(/C=C2\C(=O)Nc3cc(-c4cc5ccccc5s4)ccc32)[nH]c2c1C(=O)CCC2` [DCB-70080, (Z)-6-(benzo[b]thiophen-2-yl)-3-((3-carboxyethyl-4-oxo-4,5,6,7-tetrahydro-1H-indol-2-yl)methylene)indolin-2-one], on Aurora A kinase, testing at 1 µM gave an inhibition of 40.3%. On VEGFR2 kinase, the inhibition at 0.5 µM was found to be 76.9%.

Take `CCOC(=O)CCc1c(/C=C2\C(=O)Nc3cc(-c4ccc(O)c(OC)c4)ccc32)[nH]c2c1C(=O)CCC2` [DCB-70081, (Z)-6-(4-hydroxy-3-methoxyphenyl)-3-((3-(3-ethoxy-3-oxopropyl)-4-oxo-4,5,6,7-tetrahydro-1H-indol-2-yl)methylene)indolin-2-one]: the inhibition at 1 µM against Aurora A kinase is 27.7%. For the same molecule, the inhibition at 0.5 µM at VEGFR2 kinase was 80%.

On Aurora A kinase, `COc1cc(-c2ccc3c(c2)NC(=O)/C3=C\c2[nH]c3c(c2CCC(=O)O)C(=O)CCC3)ccc1O` [DCB-70082, (Z)-6-(4-hydroxy-3-methoxyphenyl)-3-((3-carboxyethyl-4-oxo-4,5,6,7-tetrahydro-1H-indol-2-yl)methylene)indolin-2-one] had an IC50 of 224 nM and an inhibition at 1 µM of 81.7%. The inhibition at 0.5 µM on VEGFR2 kinase is 95.8%.

At Aurora A kinase, `CCOC(=O)CCc1c(C=C2C(=S)Nc3ccccc32)[nH]c2c1C(=O)CCC2` [DCB-70083, 3-((3-(3-ethoxy-3-oxopropyl)-4-oxo-4,5,6,7-tetrahydro-1H-indol-2-yl)methylene)indolin-2-thione] had an inhibition at 1 µM of 13.2%. Moreover, the inhibition at 0.5 µM on VEGFR2 kinase came to 23.3%.

Regarding `O=C(O)CCc1c(C=C2C(=S)Nc3ccccc32)[nH]c2c1C(=O)CCC2` [DCB-70084, 3-((3-carboxyethyl-4-oxo-4,5,6,7-tetrahydro-1H-indol-2-yl)methylene)indolin-2-thione], the inhibition at 1 µM on Aurora A kinase amounted to 10.9%. Also, the inhibition at 0.5 µM at VEGFR2 kinase was 13.4%.

The molecule `CCOC(=O)CCc1c(C=C2C(=S)Nc3cc(Br)ccc32)[nH]c2c1C(=O)CCC2` [DCB-70085, 6-bromo-3-((3-(3-ethoxy-3-oxopropyl)-4-oxo-4,5,6,7-tetrahydro-1H-indol-2-yl)methylene)indolin-2-thione] had an inhibition at 1 µM against Aurora A kinase of 11.2%. For the same molecule, the inhibition at 0.5 µM at VEGFR2 kinase came to 25.4%.

With `O=C(O)CCc1c(C=C2C(=S)Nc3cc(Br)ccc32)[nH]c2c1C(=O)CCC2` [DCB-70086, 6-bromo-3-((3-carboxyethyl-4-oxo-4,5,6,7-tetrahydro-1H-indol-2-yl)methylene)indolin-2-thione], on Aurora A kinase, the inhibition at 1 µM stood at 5.8%. Also, at VEGFR2 kinase, the inhibition at 0.5 µM turned out to be 21.9%.

At Aurora A kinase, `O=C(O)CCc1c(/C=C2\C(=O)Nc3ccc(S(=O)(=O)N4CCCC4)cc32)[nH]c2c1C(=O)CCC2` [DCB-70087, (Z)-5-(pyrrolidin-1-ylsulfonyl)-3-((3-carboxyethyl-4-oxo-4,5,6,7-tetrahydro-1H-indol-2-yl)methylene)indolin-2-one] registered an IC50 of 7.3 nM and an inhibition at 1 µM of 99.7%. Further, the inhibition at 0.5 µM on VEGFR2 kinase was 26.3%.

As to `O=C(O)CCc1c(/C=C2\C(=O)Nc3ccc(S(=O)(=O)N4CCOCC4)cc32)[nH]c2c1C(=O)CCC2` [DCB-70088, (Z)-5-morpholinosulfonyl-3-((3-carboxyethyl-4-oxo-4,5,6,7-tetrahydro-1H-indol-2-yl)methylene)indolin-2-one], at Aurora A kinase, the 50% inhibitory concentration (IC50) turned out to be 28.8 nM and the inhibition at 1 µM is 99.3%. In addition, the inhibition at 0.5 µM at VEGFR2 kinase is 17.2%.

`CCOC(=O)CCc1c(/C=C2\C(=O)Nc3ccc(NC(=O)Nc4ccc(C)cc4)cc32)[nH]c2c1C(=O)CCC2` [DCB-70091, (Z)-5-(3-p-tolylureido)-3-((3-(3-ethoxy-3-oxopropyl)-4-oxo-4,5,6,7-tetrahydro-1H-indol-2-yl)methylene)indolin-2-one] gave an inhibition at 1 µM against Aurora A kinase of 7.6%. Besides, on VEGFR2 kinase, the inhibition at 0.5 µM stood at 24.6%.

The molecule `CCOC(=O)CCc1c(/C=C2\C(=O)Nc3ccc(NC(=O)Nc4ccc(OC)cc4)cc32)[nH]c2c1C(=O)CCC2` [DCB-70092, (Z)-5-(3-(4-methoxyphenyl)ureido)-3-((3-(3-ethoxy-3-oxopropyl)-4-oxo-4,5,6,7-tetrahydro-1H-indol-2-yl)methylene)indolin-2-one] gave an inhibition at 1 µM against Aurora A kinase of 9.4%. The inhibition at 0.5 µM on VEGFR2 kinase stood at 30.2%.

Take `Cc1ccc(NC(=O)Nc2ccc3c(c2)/C(=C/c2[nH]c4c(c2CCC(=O)O)C(=O)CCC4)C(=O)N3)cc1` [DCB-70093, (Z)-5-(3-p-tolylureido)-3-((3-carboxyethyl-4-oxo-4,5,6,7-tetrahydro-1H-indol-2-yl)methylene)indolin-2-one]: at Aurora A kinase, at 1 µM the inhibition was 70.5%. Also, the inhibition at 0.5 µM on VEGFR2 kinase came to 70.1%.

Regarding `COc1ccc(NC(=O)Nc2ccc3c(c2)/C(=C/c2[nH]c4c(c2CCC(=O)O)C(=O)CCC4)C(=O)N3)cc1` [DCB-70094, (Z)-5-(3-(4-methoxyphenyl)ureido)-3-((3-carboxyethyl-4-oxo-4,5,6,7-tetrahydro-1H-indol-2-yl)methylene)indolin-2-one], the inhibition at 1 µM against Aurora A kinase came out at 75.2%. On VEGFR2 kinase, the inhibition at 0.5 µM worked out at 79.8%.

On to `NS(=O)(=O)c1ccc2c(c1)/C(=C/c1[nH]c3c(c1CCC(=O)O)C(=O)CCC3)C(=O)N2` [DCB-70095, (Z)-5-sulfamoyl-3-((3-carboxyethyl-4-oxo-4,5,6,7-tetrahydro-1H-indol-2-yl)methylene)indolin-2-one], for which, at Aurora A kinase, the IC50 is 61.2 nM and the inhibition at 1 µM worked out at 94.3%. The inhibition at 0.5 µM on VEGFR2 kinase came to 64.4%.

Turning to `CCOC(=O)CCc1c(/C=C2\C(=O)Nc3ccc(NC(=O)c4ccccc4)cc32)[nH]c2c1C(=O)CCC2` [DCB-70096, (Z)-5-benazmido-3-((3-(3-ethoxy-3-oxopropyl)-4-oxo-4,5,6,7-tetrahydro-1H-indol-2-yl)methylene)indolin-2-one], the inhibition at 1 µM on Aurora A kinase was 38.6%. For the same molecule, the inhibition at 0.5 µM on VEGFR2 kinase was determined as 44.2%.

For the molecule `O=C(O)CCc1c(/C=C2\C(=O)Nc3ccc(NC(=O)c4ccccc4)cc32)[nH]c2c1C(=O)CCC2` [DCB-70097, (Z)-5-benazmido-3-((3-carboxyethyl-4-oxo-4,5,6,7-tetrahydro-1H-indol-2-yl)methylene)indolin-2-one], the inhibition at 1 µM against Aurora A kinase was found to be 64.7%. Besides, the inhibition at 0.5 µM on VEGFR2 kinase worked out at 62.5%.
